Experimental data taken from patent publication US5798375A, “Treatment of arteriosclerosis and xanthoma” (Sankyo Company, Limited, priority 1995, dated 1998).

Assays:
[1] = tested on: WHHL rabbits; experiment: Example 2: incidence and degree of xanthoma of the four legs; type: in vivo, Male WHHL rabbits; set-up: Frequency of massive xanthoma: unit not given here
Procedure: (§1) Each test compound was administered for eight months to the rabbits in the form of an aqueous suspension (0.5% carboxymethylcellulose added). In the control group, a 0.5% carboxymethylcellulose solution only was administered.
The incidence and the degree of xanthoma of the four legs were measured.

[2] = tested on: coronary arteriosclerosis and xanthoma; details: literature: Biochim. Biophys. Acta 960, 294-302 (1988); Atherosclerosis 83, 69-80 (1990); cited from earlier work
[3] = tested on: WHHL rabbits; experiment: Example 2: average thickening of intima in aorta; type: in vivo, Male WHHL rabbits; set-up: Average thickening of intima, Aortic Arch, percentage against the control group / Average thickening of intima, Total Aorta, percentage against the control group: concentration or dose not given beside the values
Procedure: as §1
The values actually measured are represented as the mean value plus or minus a standard error (μm). The numbers in parentheses represent the percentage intimal thickening against the control group. A significant difference was observed between Groups D and F at the aortic arch, and between Groups C and E and between Groups D and F over the total aorta (p<0.05) under the Mann-Whitney's U-Test.
The average thickening of the intima is calculated by the cross-sectional area of the aortic tunica intima one section from the arch and two sections from the thoracic and abdominal portions, divided by the length of the tunica media.

[4] = tested on: WHHL rabbits; experiment: Example 2: aortic cholesterol content; type: in vivo, Male WHHL rabbits
Procedure: as §1
The aortic cholesterol content was measured The tunica media and tunica intima at the aortic arch and at the thoracic and abdominal aorta were peeled away with tweezers and cut into pieces. The pieces were extracted with a 2:1 by volume mixture of chloroform and methanol.
The chloroform phase was separated and evaporated to dryness and the residue was dissolved in isopropanol. The total cholesterol and the free cholesterol were measured by a conventional enzymatic method.
Data are expressed by the mean plus or minus standard error (mg/g tissue). The values in parentheses indicate the percentage against the control. A significant difference against the control group was observed by the unpaired student t-test: […]

[5] = tested on: WHHL rabbits; experiment: Example 1: incidence of xanthoma in the digital joints of WHHL rabbits; type: in vivo
Procedure: (§2) WHHL rabbits [2-3 months of age, the Watanabe heritable hyperlipidemic rabbit described in Biochimica et Biophysica Acta, 960, 294-302 (1988)] were randomly assigned to a control group (7 animals, group A), a group receiving pravastatin alone (5 animals, Group B), a group receiving troglitazone alone (7 animals, Group C), and a group receiving a combination of both active substances (6 animals, Group D). Pravastatin was administered orally by gavage at a dose of 50 mg/kg/day once-daily and troglitazone was given in the diet, containing 100 mg/kg of the substance for 32 weeks. The ingested amount was limited to a daily 120 g per rabbit. Blood was withdrawn from the animal immediately before starting the study and 4, 8, 12, 16, 20, 24, 28 and 32 weeks after starting the study and the total cholesterol levels (mg/dl) were determined for each blood sample. The levels are reported as a percentage (%) of the levels measured immediately before starting the study. The animals were sacrificed and necropsied at week 32 to examine (a) the percent lesion area (%) in the total, thoracic or abdominal portion of the aorta; (b) the stenosis (%) of the coronary arteries and (c) the incidence (%) of xanthoma in the digital joints.
(§3) The values actually measured are represented as an average value±standard error in those Tables.

[6] = tested on: WHHL rabbits; experiment: Example 1: percent lesion area of the aorta in WHHL rabbits; type: in vivo; details: week 32, mean ± standard error, pravastatin 50 mg/kg/day, troglitazone in diet containing 100 mg/kg, * p < 0.05 vs control
Procedure: as §2, §3

[7] = Example 1: plasma total cholesterol in WHHL rabbits; type: in vivo; details: pravastatin 50 mg/kg/day oral gavage, troglitazone in diet containing 100 mg/kg
Procedure: as §2

[8] = tested on: Male New Zealand white rabbits; experiment: Example 3: regression of established atherosclerotic lesions in the cholesterol-fed rabbit model; type: in vivo; details: for Rate of lesion area, against the control group: figure in parentheses; for Rate of lesion area: thoracic aorta, two months, mean ± standard error, control 29 ± 20
Procedure: The rabbits were grouped randomly (3-9 animals per group) and the test samples were administered orally for two months, while they were fed with a normolipidaemic diet. […] The results are shown in terms of the percentage of lesion area in the thoracic aorta.

[9] = tested on: WHHL rabbits; experiment: Example 2: percentage area covered by lesions, aortic arch and whole aorta; type: in vivo, Male WHHL rabbits; set-up: Lesion Area, Aortic Arch, percentage against the control group / Lesion Area, Total Aorta, percentage against the control group: concentration or dose not given beside the values; details: oral, eight months
Procedure: as §1
The values actually measured are represented by the mean value plus or minus standard error. The numbers in parentheses represent the percentage lesion area against the control group.
*p<0.05, **p<0.01; significant difference against the control group under the [Mann-Whitney's U-Test A significant difference (p<0.05) was observed between Groups B and F, between Groups C and E and between Groups D and F at the aortic arch, and between Groups C and E over the total aorta.

[10] = oral, eight months, control 100 (14/14), *p < 0.05, **p < 0.01 vs control

CC[C@H](C)C(=O)O[C@H]1C[C@H](O)C=C2C=C[C@H](C)[C@H](CC[C@@H](O)C[C@@H](O)CC(=O)O)[C@H]21 [Pravastatin, sodium 1,2,6,7,8,8a-hexahydro-6,8-tetrahydroxy-2-methyl-1-naphthaleneheptanoate]
Frequency of massive xanthoma ([1]; control 57, *p < 0.05, **p < 0.01 vs control): 42
incidence of xanthoma ([1]; forelegs and hindlegs): slightly less frequent incidence of xanthoma
Distribution of severity of lesion: (-) no lesions ([1]; number of legs, control 0): 3
Distribution of severity of lesion: (+++) severe lesion ([1]; number of legs, control 6): 2
Distribution of severity of lesion: (++) moderate lesion ([1]; number of legs, control 10): 8
Distribution of severity of lesion: (+) slight lesion ([1]; number of legs, control 12): 11
Incidence of xanthoma, Forelegs [1, 10]: 100%
Incidence of xanthoma, Hindlegs [1, 10]: 75%
Incidence of xanthoma, Total ([1]; oral, eight months, control 100 (28/28), *p < 0.05, **p < 0.01 vs control): 88%
prevention of coronary arteriosclerosis and xanthoma, efficacy [2]: may be prevented in rabbits receiving pravastatin, but its efficacy remains insufficient
suppression of intimal thickening ([3]; combinations compared with Groups C and D): slight suppression of intimal thickening
Average thickening of intima, Aortic Arch, percentage against the control group ([3]; number in parentheses): 82%
Average thickening of intima, Total Aorta, percentage against the control group ([3]; number in parentheses): 82%
Average thickening of intima in aorta, Total Aorta ([3]; oral, eight months, pravastatin 50, pioglitazone 20, Compound A 10 mg/kg, mean ± standard error, control 154 ± 33): 126 ± 22 μm
Average thickening of intima in aorta, Aortic Arch ([3]; oral, eight months, pravastatin 50, pioglitazone 20, Compound A 10 mg/kg, mean ± standard error, control 237 ± 63): 194 ± 42 μm
Cholesterol level of Thoracic and Abdominal Aorta, Esterified ([4]; mean ± standard error, control 5.3 ± 1.7): 4.7 ± 0.7 mg/g tissue
Cholesterol Content of Aortic Arch, Esterified ([4]; mean ± standard error, control 6.5 ± 1.4, *p < 0.05): 6.4 ± 1.1 mg/g tissue
Cholesterol level of Thoracic and Abdominal Aorta, Free ([4]; mean ± standard error, control 14.8 ± 2.3, *p < 0.05 vs control): 12.5 ± 1.3 mg/g tissue
Cholesterol level of Thoracic and Abdominal Aorta, Total ([4]; mean ± standard error, control 20.1 ± 2.3, *p < 0.05, **p < 0.02 vs control): 17.2 ± 1.6 mg/g tissue
Cholesterol Content of Aortic Arch, Free ([4]; mean ± standard error, control 20.6 ± 2.9): 18.6 ± 4.4 mg/g tissue
Cholesterol Content of Aortic Arch, Total ([4]; mean ± standard error, control 27.1 ± 3.3): 24.9 ± 5.2 mg/g tissue
Cholesterol Content of Aortic Arch, Esterified, percentage against the control ([4]; number in parentheses): 98%
Cholesterol Content of Aortic Arch, Free, percentage against the control ([4]; number in parentheses): 90%
Cholesterol Content of Aortic Arch, Total, percentage against the control ([4]; number in parentheses): 92%
Cholesterol level of Thoracic and Abdominal Aorta, Esterified, percentage against the control ([4]; number in parentheses): 89%
Cholesterol level of Thoracic and Abdominal Aorta, Free, percentage against the control ([4]; number in parentheses): 84%
Cholesterol level of Thoracic and Abdominal Aorta, Total, percentage against the control ([4]; number in parentheses): 86%
Incidence of xanthoma, Foreleg ([5]; week 32, control 100 (14/14)): 80%
Incidence of xanthoma, Hind leg ([5]; week 32, control 100 (14/14)): 80%
Incidence of xanthoma, Total ([5]; week 32, control 100 (28/28)): 80%
Lesion area, Abdominal aorta ([6]; control 29.9 ± 4.4): 28.2 ± 8.1%
Lesion Area, Total Aorta ([6]; control 65.7 ± 3.9): 53.8 ± 8.2%
Lesion area, Thoracic aorta ([6]; control 79.3 ± 5.4): 64.6 ± 10.4%
total cholesterol level, % of level before starting the study ([7]; week 4): 87%
total cholesterol level, % of level before starting the study ([7]; week 8): 87%
total cholesterol level, % of level before starting the study ([7]; week 12): 81%
total cholesterol level, % of level before starting the study ([7]; week 16): 81%
total cholesterol level, % of level before starting the study ([7]; week 20): 75%
total cholesterol level, % of level before starting the study ([7]; week 24): 68%
total cholesterol level, % of level before starting the study ([7]; week 28): 68%
total cholesterol level, % of level before starting the study ([7]; week 32): 60%
Rate of lesion area, against the control group ([8]; 3 mg/kg): 103
Rate of lesion area, against the control group ([8]; 5 mg/kg): 79
Rate of lesion area ([8]; 3 mg/kg oral): 30 ± 12%
Rate of lesion area ([8]; 5 mg/kg oral): 23 ± 9%
Lesion Area, Aortic Arch, percentage against the control group ([9]; number in parentheses): 72%
Lesion Area, Total Aorta, percentage against the control group ([9]; number in parentheses): 70%
Lesion Area, Total Aorta ([9]; pravastatin 50, pioglitazone 20, Compound A 10 mg/kg, mean ± standard error, *p<0.05, **p<0.01 vs control): 35 ± 6%
Lesion Area, Aortic Arch ([9]; pravastatin 50, pioglitazone 20, Compound A 10 mg/kg, mean ± standard error, control 82 ± 5, *p<0.05, **p<0.01 vs control): 59 ± 11%
